Measured values as given in patent publication US20240415839A1, “Identification and Treatment of Cancers Associated with RASGRF1 Gene Fusions” (YALE UNIVERSITY, priority 2021, published 2024).

Tests used:
[1] = test system: Ba/F3 cells expressing OCLN-RASGRF1; test: Cell viability (Cell Titer-Glo), Ba/F3 cells expressing OCLN-RASGRF1; assay type: cell-based
Description: Ba F3 Transformation Assays. Ba/F3 cells were maintained in RPMI 1640 (Gibco) with heat-inactivated 10% fetal bovine serum (Gibco) and penicillin (100 units/mL)/streptomycin (100 μg/mL; Gibco) and 1 ng/mL interleukin-3 (IL-3; Gibco). cDNAs (GFP or OCLN-RASGRF1) in pLX307 were introduced into Ba/F3 cells via lentiviral transduction with 8 μg/mL polybrene and centrifugation at 2250 rpm at 37 degrees C. for 30 minutes. 24 hours later, transduced cells were selected with 1 μg/mL puromycin for at least 5 days.
(§1) Cell Viability Assays and RASGRF1 knockdown. Ba/F3 cells or PaCaDD137 cells were seeded in 96-well microtiter plates. Drug or drug vehicle was added on the same day (for Ba/F3 cells) or 24 hours after seeding (for PaCaDD137 cells). Following 4-5 days of drug exposure, cell viability was determined using the Cell Titer-Glo luminescent assay (Promega) according to the manufacturer's instructions. Luminescence was measured with a Spectramax M3 plate reader (Molecular Devices). Data analysis was performed using GraphPad Prism software.

PaCaDD137 cells = test: Cell viability (Cell Titer-Glo), PaCaDD137 cells; assay type: cell-based
Description: as §1, with “Following 4-5 days of drug exposure, cell viability was determined using the Cell Titer-Glo luminescent assay (Promega) according to the manufacturer's instructions.” left out

Question: `CS(=O)(=O)N1CCN(Cc2cc3nc(-c4cccc5[nH]ncc45)nc(N4CCOCC4)c3s2)CC1` [pictilisib] was tested. Which “activity of addition of pictilisib to trametinib compared to trametinib alone” value ([1]; 100 or 500 nM pictilisib, 4 days) did it give?
Answer: The value was “only a modest increase in activity”.

Question: And the “sensitivity (cell viability)” value ([1]; 4 days, Cell Titer-Glo)?
Answer: Its value is “only a modest increase in sensitivity”.

Question: And the “activity of addition of pictilisib to trametinib compared to trametinib alone” value (PaCaDD137 cells; 100 or 500 nM pictilisib, 6 days)?
Answer: The value was “only a modest increase in activity”.

Question: And the “sensitivity (cell viability)” value (PaCaDD137 cells; Cell Titer-Glo)?
Answer: The value was “not”.

Question: What does the source list for `CC(=O)Nc1cccc(-n2c(=O)n(C3CC3)c(=O)c3c(Nc4ccc(I)cc4F)n(C)c(=O)c(C)c32)c1` [trametinib]?
Answer: IC50 ([1]; Mus musculus, BaF3, 96 h, 4 days exposure, Cell Titer-Glo, read-out: half maximal inhibitory concentration (IC50), cell viability): ~0.15 nM; IC50 (PaCaDD137 cells; 120 h, 5 days, Cell Titer-Glo): ~20 nM
